Source: US4539326A, “5-Oxo-5H-(1)benzopyrano(2,3-b)pyridine derivatives, their production and use as anti-inflammatory agents” (Takeda Chemical Industries, Ltd., priority 1982, dated 1985)

Assays:
[1] = test system: carrageenin-induced edema; assay: rat carrageenin-induced edema method (antiinflammatory activity); type: in vivo
[2] = test system: phenylquinone writhing; assay: mouse phenylquinone writhing method (analgesic activity); type: in vivo
[3] = test system: adjuvant arthritis; assay: Action of inhibiting adjuvant arthritis (M. butyricum adjuvant, oral, 14 days); type: in vivo, male Sprague-Dawley rats (6-week old); conditions: for Systemic inflammation score / Increase in body weight / Weight of thymus: 50 mg/kg oral once a day; for Systemic inflammation score: max score 20; for Increase in body weight / Weight of thymus: day 14; for Restraint of the increase in body weight (result in words) / Systemic inflammation score (result in words) / Weight of thymus (result in words): oral once a day for 14 days, compared with control group
Procedure: As experimental animal, male Sprague-Dawley rats (6-week old) were used.
(§1) Adjuvant arthritis was induced by suspending killed cells of mycobacteria (M. butyricum strain) in liquid paraffin and injecting the rats with the resultant suspension beneath the skin of the hind-paw. The suspension obtained by suspending 70 mg of the test specimen [disodium(7-ethyl-3-carboxylato-5-oxo-5H-[1]benzopyrano[2,3-b]pyridin-2-yl)acetate] in 7 ml of 4% gum arabic was administered orally to rats once a day at a rate of 0.5 ml per 100 g of body weight for the consecutive 14 days after the injection of adjuvant. The degrees or severities of the inflammations induced on the other hind paw not injected with adjuvant, front paws, tail and ears were graded 1 to 5, and the grades were summed up for each animal, with the highest mark in total for the four body spots being 20. In addition, effects exerted by the administration on the increase in body weight (difference between the body weights measured after 14 days and on the day of sensitization) and the weight of thymus were investigated, and were compared with those obtained with the control group.
as §1, with “in liquid paraffine and injecting” for “in liquid paraffin and injecting”, “skin of hind-paw. The” for “skin of the hind-paw. The”, “test specimen [ethyl(7-ethyl-3-ethoxycarbonyl-5-oxo-5H-[1]benzopyrano[2,3-b]pyridin-2-yl)acetate] in 7” for “test specimen [disodium(7-ethyl-3-carboxylato-5-oxo-5H-[1]benzopyrano[2,3-b]pyridin-2-yl)acetate] in 7”

Compound | Antiinflammatory activity [1] | Analgesic activity [2] | Systemic inflammation score ([3]; Experiment 1 (Table 1), day 12 after sensitization, control 7.0 ± 0.9, * P <0.05) | Increase in body weight ([3]; Experiment 1 (Table 1), control 42.2 ± 2.5) [g] | Weight of thymus ([3]; Experiment 1 (Table 1), control 211.7 ± 21.5, * P <0.05) [mg] | Systemic inflammation score ([3]; Experiment 1 (Table 1), day 14 after sensitization, control 8.8 ± 0.7, * P <0.05) | Restraint of the increase in body weight (result in words) [3] | Systemic inflammation score (result in words) [3] | Weight of thymus (result in words) [3] | Systemic inflammation score ([3]; Experiment 2 (Table 2), day 12 after sensitization, control 6.7 ± 0.8, ** P <0.01) | Increase in body weight ([3]; Experiment 2 (Table 2), control 42.5 ± 3.2) [g] | Weight of thymus ([3]; Experiment 2 (Table 2), control 286.5 ± 34.3) [mg] | Systemic inflammation score ([3]; Experiment 2 (Table 2), day 14 after sensitization, control 8.0 ± 0.5, ** P <0.01)
CCc1ccc2oc3nc(CC(=O)O)c(C(=O)O)cc3c(=O)c2c1 [disodium(7-ethyl-3-carboxylato-5-oxo-5H-[1]benzopyrano[2,3-b]pyridin-2-yl)acetate] | neither to exhibit the antiinflammatory activity | neither to exhibit the antiinflammatory activity in the rat carrageenin-induced edema method and the analgesic activity | 3.7 ± 1.1 | 50.0 ± 3.1 | 375 ± 52.0 | 4.7 ± 1.6 | improve the systemic inflammation score and the restraint of the increase in body weight | improve the systemic inflammation score | increase the weight of thymus |  |  |  | 
CCOC(=O)Cc1nc2oc3ccc(CC)cc3c(=O)c2cc1C(=O)OCC [ethyl(7-ethyl-3-ethoxycarbonyl-5-oxo-5H-[1]benzopyrano[2,3-b]pyridin-2-yl)acetate] |  |  |  |  |  |  | improve the systemic inflammation score and the restraint of the increase in body weight | improve the systemic inflammation score | tendency to increase the weight of thymus | 3.3 ± 0.7 | 43.3 ± 8.6 | 444.2 ± 69.9 | 4.0 ± 1.0
